The values below come from patent US10899737B2, “Piperazine carbamates and methods of making and using same” (Lundbeck La Jolla Research Center, Inc., priority 2016, dated 2021).

Common to all, as to assay type: biochemical
Experiment [1] concerns the target T1, MAGL (Homo sapiens, UniProt Q99685).
T1 construct: Proteomes (human prefrontal cortex or cell membrane fractions); from tissue
T1 sequence (Q99685 1-303): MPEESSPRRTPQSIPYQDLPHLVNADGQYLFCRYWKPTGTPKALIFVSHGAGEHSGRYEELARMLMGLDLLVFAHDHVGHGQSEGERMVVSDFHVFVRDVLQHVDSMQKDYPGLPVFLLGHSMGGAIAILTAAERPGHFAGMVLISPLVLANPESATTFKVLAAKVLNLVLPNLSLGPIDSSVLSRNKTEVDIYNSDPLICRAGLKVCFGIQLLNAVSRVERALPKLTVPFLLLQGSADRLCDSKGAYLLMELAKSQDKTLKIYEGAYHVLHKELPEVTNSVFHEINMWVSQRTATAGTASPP
Put plainly: In vitro competitive activity-based protein profiling (human), MAGL. To be noted: for inhibition at 1 µM: 1 μM inhibitor, human proteome, 30 min preincubation at 37° C, read-out: MAGL % inh. 1 μM (human); for IC50: human PC3. How it is done:
(§1) In Vitro Competitive Activity-Based Protein Profiling (Human).
(§2) Proteomes (human prefrontal cortex or cell membrane fractions) (50 μL, 1.0-2.0 mg/mL total protein concentration) were preincubated with varying concentrations of inhibitors at 37° C. After 30 min, FP-Rh or JW912 (1.0 μL, 50 μM in DMSO) was added and the mixture was incubated for another 30 min at room temperature. Reactions were quenched with SDS loading buffer (15 μL-4×) and run on SDS-PAGE. Following gel imaging, serine hydrolase activity was determined by measuring fluorescent intensity of gel bands corresponding to MAGL and ABHD6 using ImageJ 1.49 k software.

Experiment [2] concerns the target T2, ABHD6 (Homo sapiens, UniProt Q9BV23).
T2 construct: Proteomes (human prefrontal cortex or cell membrane fractions); endogenous in cells; human prefrontal cortex
T2 sequence (Q9BV23 1-337): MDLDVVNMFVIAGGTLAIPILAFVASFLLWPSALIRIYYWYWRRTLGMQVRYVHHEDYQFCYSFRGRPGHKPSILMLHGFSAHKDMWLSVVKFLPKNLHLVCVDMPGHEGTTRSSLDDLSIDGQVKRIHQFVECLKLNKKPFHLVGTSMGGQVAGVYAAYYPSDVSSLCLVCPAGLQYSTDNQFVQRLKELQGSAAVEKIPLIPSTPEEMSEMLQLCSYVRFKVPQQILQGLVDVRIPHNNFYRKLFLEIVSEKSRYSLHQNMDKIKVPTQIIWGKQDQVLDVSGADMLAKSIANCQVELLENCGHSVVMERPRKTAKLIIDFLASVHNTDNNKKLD
As to the kind of experiment: In vitro competitive activity-based protein profiling (human), ABHD6. The following applies: human PC3. How it is done:
as §1, §2

In experiment [3] the target is T3, MAGL (Mus musculus, UniProt O35678).
T3 construct: Proteomes (mouse brain membrane fraction or cell lysates); from tissue; host or cells: mouse brain membrane fraction or cell lysates
T3 sequence (O35678 1-303): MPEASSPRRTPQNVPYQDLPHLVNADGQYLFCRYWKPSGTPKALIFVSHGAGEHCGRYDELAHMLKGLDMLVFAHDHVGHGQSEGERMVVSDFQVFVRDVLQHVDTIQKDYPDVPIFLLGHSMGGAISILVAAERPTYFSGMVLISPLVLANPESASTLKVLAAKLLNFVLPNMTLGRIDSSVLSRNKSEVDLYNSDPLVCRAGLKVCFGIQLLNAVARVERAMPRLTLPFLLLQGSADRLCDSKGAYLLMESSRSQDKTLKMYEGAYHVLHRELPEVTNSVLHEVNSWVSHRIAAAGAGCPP
Put plainly: In vitro competitive activity-based protein profiling (mouse), MAGL. The following applies: 1 μM inhibitor, mouse brain membrane fraction or cell lysates; read-out: MAGL % inh. 1 μM (mouse). Here is the method:
(§3) In Vitro Competitive Activity-Based Protein Profiling (Mouse).
(§4) Proteomes (mouse brain membrane fraction or cell lysates) (50 μL, 1.0 mg/mL total protein concentration) were preincubated with varying concentrations of inhibitors at 37° C. After 30 min, FP-Rh (1.0 μL, 50 μM in DMSO) was added and the mixture was incubated for another 30 min at 37° C. Reactions were quenched with SDS loading buffer (50 μL-4×) and run on SDS-PAGE. Following gel imaging, serine hydrolase activity was determined by measuring fluorescent intensity of gel bands corresponding to MAGL and ABHD6 using ImageJ 1.49 k software. Data from this assay is shown in Table 1 (% inhibition at 1 μM).

Experiment [4] deals with T4, ABHD6 (Mus musculus, UniProt Q8R2Y0).
T4 construct: Proteomes (mouse brain membrane fraction or cell lysates); from tissue; host or cells: mouse brain membrane fraction or cell lysates
T4 sequence (Q8R2Y0 1-336): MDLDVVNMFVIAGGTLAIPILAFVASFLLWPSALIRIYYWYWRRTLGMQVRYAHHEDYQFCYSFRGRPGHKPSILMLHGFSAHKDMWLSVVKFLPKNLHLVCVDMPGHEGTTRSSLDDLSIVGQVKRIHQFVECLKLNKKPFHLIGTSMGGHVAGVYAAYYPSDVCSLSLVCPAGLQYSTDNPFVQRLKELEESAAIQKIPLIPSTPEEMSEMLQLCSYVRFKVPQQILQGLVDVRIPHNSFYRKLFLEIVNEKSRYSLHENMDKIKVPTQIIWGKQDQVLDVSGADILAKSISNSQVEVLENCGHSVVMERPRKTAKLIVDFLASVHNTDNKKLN
Put plainly: In vitro competitive activity-based protein profiling (mouse), ABHD6. To be noted: 1 μM inhibitor, mouse brain membrane fraction or cell lysates; read-out: ABHD6 % inh. 1 μM (mouse). Here is the method:
as §3, §4

What is called IC50 is the concentration at which inhibition is half-maximal. As for `CCCC1(C(=O)O)CCN(c2cc(CN3CCN(C(=O)OC(C(F)(F)F)C(F)(F)F)CC3)cc(C(F)(F)F)c2)CC1` [Example 52, 1-(3-((4-(((1,1,1,3,3,3-hexafluoropropan-2-yl)oxy)carbonyl)piperazin-1-yl)methyl)-5-(trifluoromethyl)phenyl)-4-propylpiperidine-4-carboxylic acid], the inhibition at 1 µM at MAGL [1], at MAGL [3] and at ABHD6 [4] was at least 75% each time. Moreover, the IC50 is at most 0.1 µM on MAGL [1] and 0.1 to 1 µM at ABHD6 [2].

`Cc1ccc(CN2CCN(C(=O)OC(C(F)(F)F)C(F)(F)F)CC2)c(C2(C(=O)O)CCCC2)c1` [Example 14, 1-(2-((4-(((1,1,1,3,3,3-Hexafluoropropan-2-yl)oxy)carbonyl)piperazin-1-yl)methyl)-5-methylphenyl)cyclopentane-1-carboxylic Acid]: the inhibition at 1 µM at MAGL [1] was at least 75%; on MAGL [3] it was at least 75%; on ABHD6 [4], 0 to 25%. Also, the IC50 was at most 0.1 µM on MAGL [1] and 1 to 10 µM at ABHD6 [2].

For the molecule `O=C(O)CNCC1CCN(c2cc(C(F)(F)F)ccc2CN2CCN(C(=O)OC(C(F)(F)F)C(F)(F)F)CC2)CC1` [Example 61, ((1-(2-((4-(((1,1,1,3,3,3-hexafluoropropan-2-yl)oxy)carbonyl)piperazin-1-yl)methyl)-5-(trifluoromethyl)phenyl)piperidin-4-yl)methyl)glycine], the inhibition at 1 µM on MAGL [1] was at least 75%; on MAGL [3] it was at least 75%; at ABHD6 [4], 0 to 25%. Besides, the IC50 at MAGL [1] is at most 0.1 µM; on ABHD6 [2], 1 to 10 µM.

In the case of `O=C(O)CN1CCCC1C1CCN(c2cc(Cl)ccc2CN2CCN(C(=O)OC(C(F)(F)F)C(F)(F)F)CC2)CC1` (stereo not drawn) [Example 34, 2-(2-(1-(5-Chloro-2-((4-(((1,1,1,3,3,3-hexafluoropropan-2-yl)oxy)carbonyl)piperazin-1-yl)methyl)phenyl)piperidin-4-yl)pyrrolidin-1-yl)acetic Acid], the inhibition at 1 µM was at least 75% at MAGL [1], at least 75% on MAGL [3] and 50 to 75% on ABHD6 [4]. The figures for the IC50 at MAGL [1] and on ABHD6 [2] were at most 0.1 µM and 1 to 10 µM, respectively.

Take `O=C(O)C1COCCN1c1cc(C(F)(F)F)ccc1CN1CCN(C(=O)OC(C(F)(F)F)C(F)(F)F)CC1` (stereo not drawn) [Example 71, 4-(2-((4-(((1,1,1,3,3,3-hexafluoropropan-2-yl)oxy)carbonyl)piperazin-1-yl)methyl)-5-(trifluoromethyl)phenyl)morpholine-3-carboxylic acid]: the inhibition at 1 µM at MAGL [1] was at least 75%; at MAGL [3], at least 75%; on ABHD6 [4] it was 0 to 25%. The IC50 on MAGL [1] is 0.1 to 1 µM; at ABHD6 [2], 1 to 10 µM.

Consider `O=C(O)CN1CCC2(C1)CN(c1cc(Cl)ccc1CN1CCN(C(=O)OC(C(F)(F)F)C(F)(F)F)CC1)C2` [Example 48, 2-(2-(5-chloro-2-((4-(((1,1,1,3,3,3-hexafluoropropan-2-yl)oxy)carbonyl)piperazin-1-yl)methyl)phenyl)-2,6-diazaspiro[3.4]octan-6-yl)acetic acid], for which the inhibition at 1 µM at MAGL [1] is at least 75%; at MAGL [3], at least 75%; at ABHD6 [4], 0 to 25%. Further, the values for the IC50 on MAGL [1] and on ABHD6 [2] were at most 0.1 µM and 1 to 10 µM, respectively.

Take `CC(C)(C(=O)O)N1CC2CN(c3cc(C(F)(F)F)ccc3CN3CCN(C(=O)OC(C(F)(F)F)C(F)(F)F)CC3)CC2C1` (stereo not drawn) [Example 16, 2-(5-(2-((4-(((1,1,1,3,3,3-Hexafluoropropan-2-yl)oxy)carbonyl)piperazin-1-yl)methyl)-5-(trifluoromethyl)phenyl)hexahydropyrrolo[3,4-c]pyrrol-2(1H)-yl)-2-methylpropanoic Acid]: the results for the inhibition at 1 µM on MAGL [1], on MAGL [3] and at ABHD6 [4] were at least 75%, at least 75% and 0 to 25%, respectively. The IC50 at MAGL [1] is at most 0.1 µM; at ABHD6 [2], 1 to 10 µM.

As to `CCC1(C(=O)O)CCN(c2cc(CN3CCN(C(=O)OC(C(F)(F)F)C(F)(F)F)CC3)cc(C(F)(F)F)c2)CC1` [Example 53, 4-ethyl-1-(3-((4-(((1,1,1,3,3,3-hexafluoropropan-2-yl)oxy)carbonyl)piperazin-1-yl)methyl)-5-(trifluoromethyl)phenyl)piperidine-4-carboxylic acid], the inhibition at 1 µM on MAGL [1], on MAGL [3] and on ABHD6 [4] was at least 75% each time. Further, the IC50 at MAGL [1] was at most 0.1 µM; at ABHD6 [2] it was 0.1 to 1 µM.

Consider `O=C(O)[C@H]1CCCN(c2cc(CN3CCN(C(=O)OC(C(F)(F)F)C(F)(F)F)CC3)cc(C(F)(F)F)c2)C1` [Example 81, (S)-1-(3-((4-(((1,1,1,3,3,3-hexafluoropropan-2-yl)oxy)carbonyl)piperazin-1-yl)methyl)-5-(trifluoromethyl)phenyl)piperidine-3-carboxylic acid], for which the inhibition at 1 µM on MAGL [1], at MAGL [3] and on ABHD6 [4] was at least 75% each time. The IC50 at MAGL [1] is at most 0.1 µM; at ABHD6 [2], 0.1 to 1 µM.

Turning to `N#Cc1ccc(CN2CCN(C(=O)OC(C(F)(F)F)C(F)(F)F)CC2)c(N2CCC(C(=O)O)CC2)c1` [Example 69, 1-(5-cyano-2-((4-(((1,1,1,3,3,3-hexafluoropropan-2-yl)oxy)carbonyl)piperazin-1-yl)methyl)phenyl)piperidine-4-carboxylic acid], the inhibition at 1 µM is at least 75% at MAGL [1], at least 75% at MAGL [3] and 0 to 25% at ABHD6 [4]. For the same molecule, the values for the IC50 on MAGL [1] and at ABHD6 [2] were at most 0.1 µM and 0.1 to 1 µM, respectively.

Turning to `CC1(C(=O)O)CCCN(c2cc(CN3CCN(C(=O)OC(C(F)(F)F)C(F)(F)F)CC3)cc(C(F)(F)F)c2)C1` (stereo not drawn) [Example 56, 1-(3-((4-(((1,1,1,3,3,3-hexafluoropropan-2-yl)oxy)carbonyl)piperazin-1-yl)methyl)-5-(trifluoromethyl)phenyl)-3-methylpiperidine-3-carboxylic acid], the inhibition at 1 µM at MAGL [1] was at least 75%; at MAGL [3], at least 75%; on ABHD6 [4], 0 to 25%. Also, the IC50 at MAGL [1] and on ABHD6 [2] was at most 0.1 µM each time.

Turning to `O=C(OC(C(F)(F)F)C(F)(F)F)N1CCN(Cc2ccc(C(F)(F)F)c(C3(C(=O)O)CCCC3)c2)CC1` [Example 37, 1-(5-((4-(((1,1,1,3,3,3-hexafluoropropan-2-yl)oxy)carbonyl)piperazin-1-yl)methyl)-2-(trifluoromethyl)phenyl)cyclopentane-1-carboxylic acid], the inhibition at 1 µM on MAGL [1], on MAGL [3] and at ABHD6 [4] was at least 75% in each case. The IC50 at MAGL [1] is at most 0.1 µM; on ABHD6 [2], 0.1 to 1 µM.
